# Experimental data published in patent US20250340516A1, “Isoquinolinones as Modulators of POLRMT” (Pretzel Therapeutics, Inc., priority 2024, published 2025).
# Target: POLRMT (Homo sapiens (Human), UniProt O00411)
# Experiment: homogeneous TR-FRET assay of POLRMT inhibition (mitochondrial transcription, 407 bp RNA product)
# Type: biochemical
# Details: 7.5 nM POLRMT, 15 nM TFB2M, 30 nM TFAM, 0.5 nM DNA template, 500 μM NTPs, 37° C., 60 minutes, * = aggregation of data sets, read-out: IC50 values for isoquinolinone compounds
# Experimental: The inhibitory activity of the compounds of the present invention against POLRMT were determined by assays based on Bergbrede, T., et al., “An adaptable high-throughput technology enabling the identification of specific transcription modulators,” SLAC Discov., 22, 378-386 (2017).
# The ability of some compounds of the present invention to inhibit POLRMT were determined in a homogeneous TR-FRET Assay using high-throughput screening in a 384-well plate format. This method is used to monitor the activity of mitochondrial transcription through measurement of its product, a 407 bp long RNA transcript. Detection of the product is facilitated by hybridization of two DNA-oligonucleotide probes to specific and adjacent sequences within the RNA product sequence. Upon annealing of the probes, two fluorophores are coupled directly to an acceptor nucleotide probe (ATTO647, 5′), or introduced via a coupled streptavidin with a biotinylated donor nucleotide probe (Europium cryptate) that is brought into sufficient proximity to serve as a fluorescence-donor-acceptor pair. Thus, a FRET signal at 665 nm is generated upon excitation at 340 nm.
# Proteins used as transcription factors (POLRMT: NP_005026.3, TFAM: NP_003192.1, TFB2M: NP_071761.1) are diluted from their stocks to working concentrations of 1 μM, 20 μM and 4 μM respectively, in a dilution buffer containing 20 mM Tris-HCl (pH 8.0), 200 mM NaCl, 10% (v/v) glycerol, 1 mM Dithiothreitol (DTT), 0.5 mM EDTA.
# DNA template is a pUC18 plasmid with the mitochondrial light strand promotor sequence (1-477) cloned between HindIII and BamHI sites. The DNA template is restriction linearized proximal to the promotor 3′-end (pUC-LSP).
# The reaction mixture (10 uL) containing 7.5 nM POLRMT, 15 nM of TFB2M, 30 nM of TFAM, 0.5 nM of DNA template and 500 μM nucleotide triphosphate mix (NTPs) in a reaction buffer (containing 10 mM Tris-HCl (pH 7.5), 10 mM MgCl2, 40 mM NaCl, 10 mM DTT, 0.005% (w/v) Tween-20, 160 units/ml Rnase inhibitor and 0.1 mg/mL BSA) are dispensed to compounds in microplates, using a Thermo Multidrop® dispenser, and incubated at 37° C. in a VWR INCU-Line incubator for 60 minutes after mixing. No nucleotide triphosphate mix is added to negative control samples. Microplates with compounds to be tested in the assay are prepared from 10 mM compound stocks in 100% DMSO, equal amounts of DMSO without any compound are added to positive control and negative control samples.
# During the incubation, a mix of the detection reagents is prepared in a buffer such that the enzymatic reaction is terminated due to chelating of Mg-ions and increased ionic strength, containing 50 mM Tris-HCl (pH 7.5), 700 mM NaCl, 20 mM EDTA, and 0.01% (w/v) Tween-20. Europium-streptavidin is pre-incubated with a 200-fold molar excess of a random sequence oligonucleotide to block unspecific binding of oligo, for two hours at ambient temperature in the dark. Afterwards, the blocked Europium-streptavidin is kept on ice until use.
# At the end of the enzymatic reaction time, 5 μL detection oligo mix in the detection buffer is added, and assay plates are mixed and kept at ambient temperature for one hour, protected from light. The concentration of the Acceptor nucleotide oligo (e.g., ATTO647N-5′-[…]-3′ (SEQ ID NO: 1)) and Donor nucleotide oligo (e.g., bio-5′-AACACATCTCT(-bio)GCCAAACCCCA-bio-3′ (SEQ ID NO: 2)) in each assay well is 1 nM, and 3 nM, respectively.
# After incubation with oligo mix, 5 μL of pre-blocked Europium-streptavidin reagent is dispensed to each assay well, assay plates are again mixed and kept at ambient temperature for one hour, protected from light.
# The generated signal is measured with BMG Pherastar microtiter plate reader with a TRF light unit, using excitation at 340 nm, an integration time of 200 μs, and a delay time of 100 μs, before detection at 620 nm and 665 nm. The ratio of donor- and acceptor-fluorescence is used as a measure of the generated transcript product (i.e. enzymatic activity).
# POLRMT, sequence (O00411 42-1230): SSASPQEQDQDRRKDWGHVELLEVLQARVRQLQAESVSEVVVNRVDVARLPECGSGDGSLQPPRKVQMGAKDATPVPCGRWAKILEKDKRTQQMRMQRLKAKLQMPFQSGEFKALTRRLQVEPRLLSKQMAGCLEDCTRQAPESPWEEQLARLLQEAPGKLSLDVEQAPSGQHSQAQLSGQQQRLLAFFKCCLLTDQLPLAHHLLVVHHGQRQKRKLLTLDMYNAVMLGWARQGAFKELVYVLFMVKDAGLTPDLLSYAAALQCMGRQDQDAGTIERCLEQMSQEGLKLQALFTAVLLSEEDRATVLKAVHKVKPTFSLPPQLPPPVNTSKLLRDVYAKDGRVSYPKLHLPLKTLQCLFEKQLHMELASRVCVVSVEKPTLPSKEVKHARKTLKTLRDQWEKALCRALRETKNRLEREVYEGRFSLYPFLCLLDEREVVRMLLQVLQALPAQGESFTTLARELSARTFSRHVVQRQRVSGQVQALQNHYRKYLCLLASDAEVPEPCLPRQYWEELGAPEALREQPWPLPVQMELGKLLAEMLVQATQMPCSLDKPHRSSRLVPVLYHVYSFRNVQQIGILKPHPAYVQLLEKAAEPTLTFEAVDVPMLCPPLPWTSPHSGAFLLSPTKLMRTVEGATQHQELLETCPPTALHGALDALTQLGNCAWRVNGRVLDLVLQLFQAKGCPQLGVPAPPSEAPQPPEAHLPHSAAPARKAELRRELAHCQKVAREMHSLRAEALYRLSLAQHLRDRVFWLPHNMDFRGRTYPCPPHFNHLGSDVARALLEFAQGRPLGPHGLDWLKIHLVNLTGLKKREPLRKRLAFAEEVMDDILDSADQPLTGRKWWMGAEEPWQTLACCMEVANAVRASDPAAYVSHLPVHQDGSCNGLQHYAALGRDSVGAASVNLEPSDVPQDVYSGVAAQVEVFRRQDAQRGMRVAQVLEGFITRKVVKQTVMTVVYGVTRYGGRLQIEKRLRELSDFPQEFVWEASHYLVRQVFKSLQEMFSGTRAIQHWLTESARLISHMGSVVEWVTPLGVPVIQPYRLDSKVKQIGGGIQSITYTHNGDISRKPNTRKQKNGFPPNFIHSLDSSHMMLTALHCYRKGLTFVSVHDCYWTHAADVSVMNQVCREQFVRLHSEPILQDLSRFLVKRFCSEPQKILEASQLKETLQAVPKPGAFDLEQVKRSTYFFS
row,Structure (SMILES),IC50
1,"Cc1ccccc1-c1c[nH]c(=O)c2cc(O[C@H](C)C(=O)N3CC(C(=O)O)CC(F)(F)C3)ccc12 (single isomer, unassigned) [Example 1]",60 nM
2,"Cc1ccccc1-c1c[nH]c(=O)c2cc(O[C@H](C)C(=O)N3CC(C(=O)O)CC(F)(F)C3)ccc12 (single isomer, unassigned) [Example 2]",50 nM
3,"C[C@@H](C(=O)N1CCC[C@H](C(=O)O)C1)N(C)c1ccc2c(-c3ccc(F)cc3Cl)c[nH]c(=O)c2c1 (single isomer, unassigned) [Example 4]",100 nM
4,"C[C@@H](C(=O)N1CCC[C@H](C(=O)O)C1)N(C)c1ccc2c(-c3ccc(F)cc3Cl)c[nH]c(=O)c2c1 (single isomer, unassigned) [Example 5]",8000 nM
5,"Cc1ccccc1-c1c[nH]c(=O)c2cc(N(C)[C@@H](C)C(=O)N3CCC[C@H](C(=O)O)C3)ccc12 (single isomer, unassigned) [Example 7]",200 nM
6,"Cc1ccccc1-c1c[nH]c(=O)c2cc(N(C)[C@@H](C)C(=O)N3CCC[C@H](C(=O)O)C3)ccc12 (single isomer, unassigned) [Example 8]",93000 nM
7,"C[C@@H](Oc1ccc2c(-c3ccc(F)cc3Cl)c[nH]c(=O)c2c1)C(=O)N1CC(C(N)=O)CC(F)(F)C1 (single isomer, unassigned) [Example 9]",200 nM
8,"Cc1ccccc1-c1c[nH]c(=O)c2cc(O[C@H](C)C(=O)N3CCCC(CC(=O)O)C3)ccc12 (single isomer, unassigned) [Example 12]",60 nM
9,"Cc1ccccc1-c1c[nH]c(=O)c2cc(O[C@H](C)C(=O)N3CCCC(CC(=O)O)C3)ccc12 (single isomer, unassigned) [Example 13]",70 nM
10,"C[C@@H](Oc1ccc2c(-c3ccc(F)cc3Cl)c[nH]c(=O)c2c1)C(=O)N1CCCC(C2(C(=O)O)CC2)C1 (single isomer, unassigned) [Example 36]",80 nM
11,"C[C@@H](Oc1ccc2c(-c3ccc(F)cc3Cl)c[nH]c(=O)c2c1)C(=O)N1CCCC(C2(C(=O)O)CC2)C1 (single isomer, unassigned) [Example 37]",50 nM
12,"Cc1ccccc1-c1c[nH]c(=O)c2cc(O[C@H](C)C(=O)N3CCCC(C4(C(N)=O)CC4)C3)ccc12 (single isomer, unassigned) [Example 40]",20 nM
13,"Cc1ccccc1-c1c[nH]c(=O)c2cc(O[C@H](C)C(=O)N3CCCC(C4(C(N)=O)CC4)C3)ccc12 (single isomer, unassigned) [Example 41]",40 nM
14,"Cc1ccccc1-c1c[nH]c(=O)c2cc(O[C@H](C)C(=O)N3CCCC(C(C)(C)C(=O)O)C3)ccc12 (single isomer, unassigned) [Example 43]",20 nM
15,"Cc1ccccc1-c1c[nH]c(=O)c2cc(O[C@H](C)C(=O)N3CCCC(C(C)(C)C(=O)O)C3)ccc12 (single isomer, unassigned) [Example 44]",60 nM
16,"Cc1ccccc1-c1c[nH]c(=O)c2cc(O[C@H](C)C(=O)N3CCCC(C(C)(C)C(N)=O)C3)ccc12 (single isomer, unassigned) [Example 45]",30 nM
17,"Cc1ccccc1-c1c[nH]c(=O)c2cc(O[C@H](C)C(=O)N3CCCC(C(C)(C)C(N)=O)C3)ccc12 (single isomer, unassigned) [Example 46]",40 nM

row,Structure (SMILES),IC50
1,"C[C@@H](Oc1ccc2c(-c3ccc(F)cc3Cl)c[nH]c(=O)c2c1)C(=O)N1CCCC(C(C)(C)C(=O)O)C1 (single isomer, unassigned) [Example 50]",60 nM
2,"C[C@@H](Oc1ccc2c(-c3ccc(F)cc3Cl)c[nH]c(=O)c2c1)C(=O)N1CCCC(C(C)(C)C(=O)O)C1 (single isomer, unassigned) [Example 51]",300 nM
3,"CCC1(C(=O)O)CCCN(C(=O)[C@@H](C)Oc2ccc3c(-c4ccccc4C)c[nH]c(=O)c3c2)C1 (single isomer, unassigned) [Example 52]",20 nM
4,"CCC1(C(=O)O)CCCN(C(=O)[C@@H](C)Oc2ccc3c(-c4ccccc4C)c[nH]c(=O)c3c2)C1 (single isomer, unassigned) [Example 53]",40 nM
5,"CCCC1(C(=O)O)CCCN(C(=O)[C@@H](C)Oc2ccc3c(-c4ccccc4C)c[nH]c(=O)c3c2)C1 (single isomer, unassigned) [Example 66]",100 nM
6,"CCCC1(C(=O)O)CCCN(C(=O)[C@@H](C)Oc2ccc3c(-c4ccccc4C)c[nH]c(=O)c3c2)C1 (single isomer, unassigned) [Example 67]",40 nM
7,"Cc1ccccc1-c1c[nH]c(=O)c2cc(O[C@H](C)C(=O)N3CCCCC(N(C)C)C3)ccc12 (single isomer, unassigned) [Example 75]",3000 nM
8,"Cc1ccccc1-c1c[nH]c(=O)c2cc(O[C@H](C)C(=O)N3CCCCC(N(C)C)C3)ccc12 (single isomer, unassigned) [Example 76]",2000 nM
9,"CCOC(=O)CN(C)c1ccc2c(-c3ccccc3C)c[nH]c(=O)c2c1 [Example 3, ethyl N-methyl-N-(1-oxo-4-(o-tolyl)-1,2-dihydroisoquinolin-7-yl)glycinate]",300 nM
10,"CC(=O)N1CC2CC1CN2C(=O)[C@@H](C)Oc1ccc2c(-c3ccc(F)cc3Cl)c[nH]c(=O)c2c1 (stereo partly drawn) [Example 6, 7-(((2R)-1-(5-acetyl-2,5-diazabicyclo[2.2.1]heptan-2-yl)-1-oxopropan-2-yl)oxy)-4-(2-chloro-4-fluorophenyl)isoquinolin-1(2H)-one]",1000 nM
11,"COc1ccc2c(-c3ccccc3C(C)O)c[nH]c(=O)c2c1 (stereo not shown) [Example 11, 4-(2-(1-hydroxyethyl)phenyl)-7-methoxyisoquinolin-1(2H)-one]",62000 nM
12,"C[C@@H](Oc1ccc2c(-c3ccc(F)cc3Cl)c[nH]c(=O)c2c1)C(=O)N1CCC(C)(C(=O)O)CC1 [Example 14, (R)-1-(2-((4-(2-chloro-4-fluorophenyl)-1-oxo-1,2-dihydroisoquinolin-7-yl)oxy)propanoyl)-4-methylpiperidine-4-carboxylic acid]",100 nM
13,"Cc1ccccc1-c1c[nH]c(=O)c2cc(O[C@H](C)C(=O)N3CCC(C)(C(=O)O)CC3)ccc12 [Example 15, (R)-4-methyl-1-(2-((1-oxo-4-(o-tolyl)-1,2-dihydroisoquinolin-7-yl)oxy)propanoyl)piperidine-4-carboxylic acid]",60 nM
14,"Cc1ccccc1-c1c[nH]c(=O)c2cc(O[C@H](C)C(=O)N3CCN(C(N)=O)CC3)ccc12 [Example 16, (R)-4-(2-((1-oxo-4-(o-tolyl)-1,2-dihydroisoquinolin-7-yl)oxy)propanoyl)piperazine-1-carboxamide]",100 nM
15,"CC(=O)N(C)CCNC(=O)[C@@H](C)Oc1ccc2c(-c3ccccc3C)c[nH]c(=O)c2c1 [Example 17, (R)-N-(2-(N-methylacetamido)ethyl)-2-((1-oxo-4-(o-tolyl)-1,2-dihydroisoquinolin-7-yl)oxy)propanamide]",2000 nM
16,"CCN1CCN(C(=O)[C@@H](C)Oc2ccc3c(-c4ccccc4C)c[nH]c(=O)c3c2)CC1 [Example 18, (R)-7-((1-(4-ethylpiperazin-1-yl)-1-oxopropan-2-yl)oxy)-4-(o-tolyl)isoquinolin-1(2H)-one]",200 nM
17,"CC(=O)NCCN(C)C(=O)[C@@H](C)Oc1ccc2c(-c3ccccc3C)c[nH]c(=O)c2c1 [Example 19, (R)-N-(2-acetamidoethyl)-N-methyl-2-((1-oxo-4-(o-tolyl)-1,2-dihydroisoquinolin-7-yl)oxy)propanamide]",2000 nM
